From ChEMBL document CHEMBL3808281, “Investigation of the Structure-Activity Relationships of Aza-A-Ring Indenoisoquinoline Topoisomerase I Poisons” (J Med Chem, 2016) come the findings set out here.

Test [1] is described as follows: Cytotoxicity against human NCI60 cells assessed as cell growth at 10 uM after 48 hrs. The test is classed as functional. To be noted: NCI60, 48 h, read-out: Activity.
In test [2] the target is T1, DNA topoisomerase 1 (Homo sapiens) (UniProt P11387).
T1 sequence (whole entry): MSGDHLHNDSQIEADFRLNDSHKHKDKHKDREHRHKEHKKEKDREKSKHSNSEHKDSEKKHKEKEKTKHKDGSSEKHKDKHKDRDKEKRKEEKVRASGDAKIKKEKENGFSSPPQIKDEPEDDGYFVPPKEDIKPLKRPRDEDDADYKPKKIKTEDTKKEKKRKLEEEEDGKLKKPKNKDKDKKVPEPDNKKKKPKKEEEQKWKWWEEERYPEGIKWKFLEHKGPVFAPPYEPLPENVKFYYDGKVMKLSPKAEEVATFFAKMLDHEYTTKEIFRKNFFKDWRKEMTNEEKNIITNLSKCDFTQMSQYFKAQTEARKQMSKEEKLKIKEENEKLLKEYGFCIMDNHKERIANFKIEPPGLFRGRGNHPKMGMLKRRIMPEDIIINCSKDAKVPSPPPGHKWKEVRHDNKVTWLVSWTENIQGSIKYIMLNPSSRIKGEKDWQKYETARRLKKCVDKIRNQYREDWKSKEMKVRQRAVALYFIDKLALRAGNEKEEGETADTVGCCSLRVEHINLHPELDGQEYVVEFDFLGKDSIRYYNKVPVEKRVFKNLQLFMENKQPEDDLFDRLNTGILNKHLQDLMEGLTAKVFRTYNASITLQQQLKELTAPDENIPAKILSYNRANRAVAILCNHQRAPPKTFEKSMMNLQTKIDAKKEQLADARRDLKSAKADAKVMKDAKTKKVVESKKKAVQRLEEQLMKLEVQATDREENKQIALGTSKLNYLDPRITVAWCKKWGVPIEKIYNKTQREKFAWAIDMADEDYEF
Nature of the test: Activity at recombinant top1 (unknown origin) assessed as DNA cleavage using 3'-[32P]-labeled 117-bp DNA as substrate at 0.1 to 100 uM after 20 mins by SDS-PAGE.

Test [3] deals with Tyrosyl-DNA phosphodiesterase 1 (Homo sapiens, UniProt Q9NUW8).
Chain of Tyrosyl-DNA phosphodiesterase 1 (Q9NUW8 whole entry): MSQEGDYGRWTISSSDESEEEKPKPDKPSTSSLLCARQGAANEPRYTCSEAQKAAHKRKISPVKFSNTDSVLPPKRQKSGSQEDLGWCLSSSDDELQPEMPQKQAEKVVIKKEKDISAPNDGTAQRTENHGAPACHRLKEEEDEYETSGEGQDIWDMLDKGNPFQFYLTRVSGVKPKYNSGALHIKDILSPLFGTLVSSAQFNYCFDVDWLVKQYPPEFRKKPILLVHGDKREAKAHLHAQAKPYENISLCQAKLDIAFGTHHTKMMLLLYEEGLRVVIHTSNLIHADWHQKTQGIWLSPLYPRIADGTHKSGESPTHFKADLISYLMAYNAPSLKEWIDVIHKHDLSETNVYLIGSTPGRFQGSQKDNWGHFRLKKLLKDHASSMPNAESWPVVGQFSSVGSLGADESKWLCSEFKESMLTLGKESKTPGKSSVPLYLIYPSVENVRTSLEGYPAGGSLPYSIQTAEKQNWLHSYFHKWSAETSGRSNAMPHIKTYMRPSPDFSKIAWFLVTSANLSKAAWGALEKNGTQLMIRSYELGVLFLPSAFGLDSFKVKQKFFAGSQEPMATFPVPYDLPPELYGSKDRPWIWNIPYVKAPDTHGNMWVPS
Description: Inhibition of recombinant TDP1 (unknown origin) using single stranded 5'-[32P]-labeled DNA containing 3'-phosphotyrosine as substrate after 15 mins by PAGE
Test [4] deals with T2, Tyrosyl-DNA phosphodiesterase 2 (Homo sapiens, UniProt O95551).
T2 sequence (O95551 whole entry): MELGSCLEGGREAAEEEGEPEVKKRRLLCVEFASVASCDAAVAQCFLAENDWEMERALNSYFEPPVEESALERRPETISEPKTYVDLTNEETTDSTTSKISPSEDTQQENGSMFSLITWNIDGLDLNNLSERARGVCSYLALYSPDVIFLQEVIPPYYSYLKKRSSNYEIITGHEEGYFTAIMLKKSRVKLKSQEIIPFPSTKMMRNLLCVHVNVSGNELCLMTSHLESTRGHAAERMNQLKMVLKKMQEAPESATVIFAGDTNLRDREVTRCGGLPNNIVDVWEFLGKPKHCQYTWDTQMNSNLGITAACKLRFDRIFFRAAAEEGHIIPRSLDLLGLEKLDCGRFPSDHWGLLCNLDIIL
Description: Inhibition of human recombinant TDP2 using 19-mer single stranded DNA containing 5'-phosphotyrosine as substrate after 15 mins by PAGE

Test [5] in a line: Antiproliferative activity against human HOP62 cells after 48 hrs. The test is classed as functional. To be noted: HOP-62, 48 h.
A short description of test [6]: Antiproliferative activity against human HCT116 cells after 48 hrs. Format: functional. Conditions: HCT-116, 48 h.
Test [7] is described as follows: Antiproliferative activity against human SF539 cells after 48 hrs. Format: functional. Conditions: SF-539, 48 h.
The nature of test [8]: Antiproliferative activity against human UACC62 cells after 48 hrs. Format: functional. To be noted: UACC-62, 48 h.
Test [9] can be described thus: Antiproliferative activity against human OVCAR3 cells after 48 hrs. To be noted: OVCAR-3, 48 h. The test is classed as functional.
For another test, the system named is SN12C. Briefly: Antiproliferative activity against human SN12C cells after 48 hrs. Format: functional.
A short description of test [10]: Antiproliferative activity against human DU145 cells after 48 hrs. The test is classed as functional. Conditions: DU-145, 48 h.
The next test concerns MCF7. Nature of the test: Antiproliferative activity against human MCF7 cells after 48 hrs. Format: functional. Conditions: MCF7, 48 h.
The nature of test [11]: Antiproliferative activity against human NCI60 cells after 48 hrs. To be noted: NCI60, 48 h. Format: functional.

Take `O=C1c2ccccc2-c2c1c1cccnc1c(=O)n2C[C@H](O)CO`: in test [1], the growth at 10 µM came out at 61.7%. Moreover, the Activity in test [2] was 20%.
In the case of `NCCCn1c2c(c3ncccc3c1=O)C(=O)c1ccccc1-2`, the Activity in test [2] was 50%.
Consider `O=C1c2ccccc2-c2c1c1ncccc1c(=O)n2C[C@H](O)CO`, for which the Activity in test [2] turned out to be 20%.
For the molecule `O=C1c2ccccc2-c2c1c1cccnc1c(=O)n2CCCN1CCOCC1`, the growth at 10 µM in test [1] was determined as 42.9%. Besides, the Activity in [2] is 75%.
In the case of `O=C1c2ccccc2-c2c1c1ccncc1c(=O)n2C[C@H](O)CO`, the Activity in test [2] was 50%. The IC50 in test [3] and in test [4] was over 111000 nM each time.
Regarding `O=C1c2ccccc2-c2c1c1cnccc1c(=O)n2CCCN1CCOCC1`, in [2], the Activity came to 75%.
In the case of `NCCCn1c2c(c3cccnc3c1=O)C(=O)c1ccccc1-2`, in [1], the growth at 10 µM amounted to 12.2%. In addition, the concentration for 50% growth inhibition (GI50) in [5] worked out at 1450 nM; in test [6] it was 537 nM; in test [7], 1380 nM; in test [8], 1350 nM; in test [9], 2290 nM; in the test with SN12C, 1120 nM. The GI50 in test [10] was found to be 1910 nM; in the test on MCF7 it was 417 nM. For the same molecule, the Activity in [2] was found to be 50%.
Turning to `O=C1c2ccccc2-c2c1c1cnccc1c(=O)n2CCCn1ccnc1`, the growth at 10 µM in [1] came out at 67.8%. Besides, the Activity in [2] turned out to be 50%.
For the molecule `O=C1c2ccccc2-c2c1c1ccncc1c(=O)n2CCCn1ccnc1`, in [1], the growth at 10 µM stood at 47.5%.
Turning to `O=C1c2ccccc2-c2c1c1ncccc1c(=O)n2CCCN1CCOCC1`, in [1], the growth at 10 µM is 87.9%. Besides, the Activity in [2] worked out at 50%.
The like results for `CN(C)CCCn1c2c(c3ncccc3c1=O)C(=O)c1ccccc1-2` were, in that order, 44.4% and 50%.
Consider `NCCCn1c2c(c3cnccc3c1=O)C(=O)c1ccccc1-2`, for which the Activity in test [2] stood at 50%. Further, in [4], inhibition was half-maximal at 111000 nM (IC50).
`O=C1c2ccccc2-c2c1c1ccccc1c(=O)n2C[C@H](O)CO`: the GI50 in test [11] worked out at 8710 nM. For the same molecule, the Activity in [2] came out at 75%.
As to `CN(C)CCCn1c2c(c3cnccc3c1=O)C(=O)c1ccccc1-2`, the growth at 10 µM in [1] was -8.83%. Besides, the GI50 in test [5] is 398 nM; in test [6] it was 245 nM; in test [7] it was 380 nM; in [8], 309 nM; in [9], 1100 nM; with SN12C, 288 nM. Moreover, the GI50 was determined as 490 nM in test [10] and 245 nM with MCF7. Moreover, the Activity in test [2] stood at 50%.
`O=C1c2ccccc2-c2c1c1ccccc1c(=O)n2CCCN1CCOCC1` had a GI50 in [11] of 15100 nM. Further, the Activity in test [2] turned out to be 50%.
With `CN(C)CCCn1c2c(c3ccncc3c1=O)C(=O)c1ccccc1-2`, the GI50 is 871 nM in [5]; 380 nM in test [6]; 1230 nM in [8]; 2000 nM in test [9]; 955 nM with SN12C; 977 nM in test [10]. This molecule displayed a GI50 in the test on MCF7 of 331 nM.
As to `O=C1c2ccccc2-c2c1c1cccnc1c(=O)n2CCCn1ccnc1`, in [1], the growth at 10 µM stood at 49.6%. Besides, the Activity in test [2] came out at 75%.
For `CC[C@@]1(O)C(=O)OCc2c1cc1n(c2=O)Cc2cc3ccccc3nc2-1` [CAMPTOTHECIN], it took 220 nM to inhibit growth in test [9] by half (GI50).
Turning to `CN(C)CCCn1c2c(c3ccccc3c1=O)C(=O)c1ccccc1-2`, the Activity in [2] was 75%.
In turn, `NCCCn1c2c(c3ccccc3c1=O)C(=O)c1ccccc1-2` had a GI50 in [11] of 320 nM. Moreover, the Activity in [2] was 75%.
Turning to `O=C1c2ccccc2-c2c1c1cnccc1c(=O)n2C[C@H](O)CO`, in test [1], the growth at 10 µM stood at 85.5%. Further, in test [2], the Activity turned out to be 20%.
As for `O=C1c2ccccc2-c2c1c1ccccc1c(=O)n2CCCn1ccnc1`, in test [11], the concentration for 50% growth inhibition (GI50) was determined as 1860 nM. Also, the Activity in test [2] was 100%.
As to `CN(C)CCCn1c2c(c3cccnc3c1=O)C(=O)c1ccccc1-2`, in test [1], the growth at 10 µM amounted to 5.45%. In addition, the concentration for 50% growth inhibition (GI50) in test [5] stood at 1260 nM; in test [6] it was 437 nM; in [7], 851 nM; in test [8], 1290 nM; in test [9], 2400 nM; with SN12C, 1120 nM. Moreover, the GI50 in test [10] is 1910 nM; in the test on MCF7, 363 nM. Also, in test [2], the Activity was 75%. This molecule also showed an IC50 in [3] of 111000 nM.
Turning to `O=C1c2ccccc2-c2c1c1ncccc1c(=O)n2CCCn1ccnc1`, the growth at 10 µM in test [1] came out at 83.6%. For the same molecule, the Activity in test [2] is 50%.
Regarding `NCCCn1c2c(c3ccncc3c1=O)C(=O)c1ccccc1-2`, in test [2], the Activity came to 0%. The IC50 in test [4] is 111000 nM.

Broadly, the IC50 is the concentration that gives 50% inhibition. Lower therefore signals greater potency. By GI50 is commonly meant the concentration giving 50% growth inhibition.
